The text below walks through data of US20080261207A1, “Method of Measuring Cancer Susceptibility” (priority 2004, published 2008).

This assay concerns p21 mRNA. Briefly: Radiation-induced p21 mRNA induction in heparinized whole blood incubated with dietary supplements (FIG. 5). It is filed as cell-based, human. The following applies: heparinized whole blood of a single individual, EGC 10 μM, rLA 10 μg/mL, Cur 1 μM; for radiation-induced p21 expression: 1 hour at 37° C. with supplement, 1 Gy ionizing radiation, another 2 hours at 37° C.; for p21 levels on control blood (no radiation) / background p21 levels: incubated with supplement at 37° C., without radiation. The method, then:
The protocol for measuring mRNA levels employed in this example was as follows. The assay procedure consists of 3 major steps: 1) leukocyte isolation and lysis on filterplates, 2) mRNA isolation, reverse primer hybridization, and cDNA synthesis in oligo(dT)-immobilized microplates, and 3) real time quantitative PCR. In brief, filterplates were placed over collection plates, and 150 μL 5 mmol/L Tris, pH 7.4, was applied to wet the filter membranes. Following centrifugation at 120×g for 1 min at 4° C. to remove solution from the filterplates, 50 μL of well-mixed blood samples were applied to each well and immediately centrifuged at 120×g for 2 min at 4° C., followed by washing of each well with 300 μL phosphate buffered saline (PBS) once with centrifugation at 2000×g for 5 min at 4° C. Then, 60 μL stock lysis buffer (see below), supplemented with 1% 2-mercaptoethanol (Bio Rad), 0.5 mg/mL proteinase K (Pierce), 0.1 mg/mL salmon sperm DNA (5 Prime Eppendorf/Brinkmann), 0.1 mg/mL E. coli tRNA (Sigma), […] each of specific reverse primers, and 10^7 molecules/mL of synthetic RNA34 as an internal standard, were applied to the filterplates, followed by incubation at 37° C. for 10 min. The filterplates were then placed over oligo(dT)-immobilized microplates (GenePlate, RNAture), and centrifuged at 2000×g for 5 min at 4° C. Following overnight storage at 4° C., the microplates were washed with 100 μL plain lysis buffer 3 times, and then with 150 μL wash buffer (0.5 mol/L NaCl, 10 mmol/L Tris, pH 7.4, 1 mmol/L EDTA) 3 times at 4° C. The cDNA was directly synthesized in each well by adding 30 μL buffer containing 1×RT-buffer (50 mmol/L KCl, 10 mmol/L Tris-HCl, pH 8.3, 5.5 mmol/L MgCl2, no dithiothreitol), 1.25 mmol/L each of dNTP, 4 units rRNasin, and 80 units of MMLV reverse transcriptase (Promega) (without primers), and incubation at 37° C. for 2 hours. The resultant 4 μL cDNA was directly transferred to 384-well PCR plates, to which 5 μL TaqMan universal master mix (Applied Biosystems) and 1 μL oligonucleotide cocktail (15 μmol/L each of forward and reverse primer, and 3-6 μmol/L TaqMan probe) were applied, and PCR was conducted in a PRISM 7900HT (Applied Biosystems), with one cycle of 95° C. for 10 min followed by 45 cycles of 95° C. for 30 sec, 55° C. for 30 sec, and 60° C. for 1 min. Each gene was amplified in separate wells. The cycle threshold (Ct), which was the cycle of PCR to generate certain amounts of PCR products (fluorescence), was determined using analytical software (SDS, Applied Biosystems). PCR was also conducted directly in the GenePlate using an iCycler (BioRad). […] First, heparinized whole blood was incubated with various dietary supplements at 37° C. for 1 hour (2 tubes for each compound). Then one tube was exposed to 1 Gy of ionizing radiation, then both tubes were incubated for another 2 hours at 37° C. The p21 mRNA was quantitated as described above. […] In FIG. 5, each data point is the mean ±standard deviation of p21 mRNA with ([…]) or without (◯) 1 Gy radiation. […] Data points surrounded by a circle indicate p<0.05.

Regarding `COc1cc(/C=C/C(=O)CC(=O)/C=C/c2ccc(O)c(OC)c2)ccc1O` [curcumin], the “radiation-induced p21 expression” value was “enhanced” and the “p21 levels on control blood (no radiation) / background p21 levels” value is listed as “increased”.
The like results for `O=C(O[C@@H]1Cc2c(O)cc(O)cc2O[C@@H]1c1cc(O)c(O)c(O)c1)c1cc(O)c(O)c(O)c1` [epigallocatechin gallate] were, in that order, “significantly enhanced” and “did not show any changes”.
Consider `CCCCC/C=C\C/C=C\C/C=C\CCCCC(=O)O` [γ-linoleic acid], for which the “radiation-induced p21 expression” value is given as “enhanced” and the “p21 levels on control blood (no radiation) / background p21 levels” value is “increased”.
